According to patent US20210210190A1, “Diagnostic Method” (Amazentis SA, priority 2019, published 2021):
Several values for one entry are separate records, joined by “and”; a condition that tells them apart may be missing. Equal values may be shown once.

Experiments:
[1] = Study of pomegranate juice and oral urolithin A: urolithin A glucuronide in dried blood spots (Example 3); format: in vivo, human; settings: dried blood spot, 24 hours after 500 mg Urolithin A softgel capsule; individual subjects 1-7; listed as UA
Method: A study was conducted in seven subjects. At the beginning of the study a sample of capillary blood via a finger prick was taken from each subject and 15-20 uL of whole blood was dried onto a dried blood sample (DBS) filter paper sample card (Whatman, Little Chalfont, Buckinghamshire, UK). A minimum of 2 spots per sampling were collected for each time-point. At T0 i.e. baseline sample, subjects ingested 80 ml pomegranate juice (freshly prepared/). At 24 hours following pomegranate juice intake, a further dried blood spot sample was taken and 15-20 uL of whole blood was dried onto a DBS filter paper card. Following this, subjects ingested 500 mg of Urolithin A in a softgel capsule and then at 48 hours (or 24 hours following UA intake), a further dried blood spot sample was taken and 15-20 uL of whole blood was dried onto DBS filter paper sample card.
This analytical method was developed to analyse whole blood spot samples collected on dry blood spot sample cards (DBS Filter card) in Example 3.
Each dried blood spot was punched from cards using a 6 mm diameter puncher and transferred into a tube. Afterwards 150 μL of methanol containing the internal standard was added. […]
The quantification of UA-glucuronide was performed by column separation with reversed-phase chromatography followed by detection with triple-stage quadrupole MS/MS in the selected reaction monitoring mode.

[2] = Single ascending dose study in healthy elderly subjects: Urolithin A glucuronide in urine (Example 6, Part A); format: in vivo, human; settings: mean ± standard error
Method: A single (Part A) and multiple (Part B) dose study of urolithin A was conducted to evaluate the safety, tolerability, pharmacokinetics and pharmacodynamics profile in healthy elderly subjects.
Part A: The study was a double-blind, randomized, single ascending doses, study in 24 healthy elderly male and female volunteers. Each subject was randomized for two subsequent doses in three cohorts.
1100 mg soft gel capsule containing 250 mg of urolithin A (as described in Example 2 above). Soft gel capsules were blister-packed in bulk, Labelling was in accordance with local regulatory specifications and requirements.
Part A: Single oral dose administration on D1 of each period according to the randomisation. The administration took place around 8:00 am with around 200 mL tap water, in sitting position, and under fasting conditions.
Cohort 1 (8 subjects): 250 mg urolithin A (6 subjects) or placebo (2 subjects) capsule soft gel formulation then 2000 mg urolithin A or placebo capsule soft gel formulation. Cohort 2 (8 subjects): 500 mg urolithin A (6 subjects) or placebo (2 subjects) capsule soft gel formulation. Cohort 3 (8 subjects): 1000 mg urolithin A (6 subjects) or placebo (2 subjects) capsule soft gel formulation.
In Part A of the study, total urine was collected during the following intervals: 0-4 h, 4-8 h, 8-12 h, 12-24 h and 24-36 h post-dose. The collected urine volume of each collection period was carefully measured by weight and recorded in the eCRF, as well as the exact start and stop time of the collection interval. Each fraction of collected urine was homogenized and 2 aliquots of 5 mL per interval were kept and stored below −80° C. Following a protocol amendment to extend the blood sampling scheme from 36 to 96 h post-dose, additional spot urine samples were taken 72 and 96 h post-dose but urine was not collected quantitatively.
The concentrations of Urolithin A and its metabolites in urine was determined using validated LC-MS/MS assays. The limit of quantification (LOQ) was 10 ng/mL for Urolithin A in urine and 50 ng/mL for Urolithin A glucuronide and Urolithin A sulphate in urine.

With `O=c1oc2cc(O)ccc2c2ccc(O)cc12` [Urolithin A] as the molecule, how does the “500 mg single UA dosing 24 h UA levels” value [1] read?
Its value is 153 ng/mL and 93.0 ng/mL and 98.0 ng/mL and 125 ng/mL and 134 ng/mL and 173 ng/mL.

And the “Urolithin A glucuronide in urine” value ([2]; 250 mg dose, Predose)?
Its value is 4,114 ± 1,261 ng/mL.

What about the “Urolithin A glucuronide in urine” value ([2]; 250 mg dose, T0-T4 h) of the same molecule?
Its value is 8,536 ± 1,394 ng/mL.

And the “Urolithin A glucuronide in urine” value ([2]; 250 mg dose, T4 h-T8 h)?
The value was 31,617 ± 7,637 ng/mL.

What about the “Urolithin A glucuronide in urine” value ([2]; 250 mg dose, T8 h-T12 h) of the same molecule?
Its value is 40,453 ± 9,275 ng/mL.

What about the “Urolithin A glucuronide in urine” value ([2]; 250 mg dose, T12 h-T24 h) of the same molecule?
Its value is 62,817 ± 8,454 ng/mL.

What about the “Urolithin A glucuronide in urine” value ([2]; 250 mg dose, T24 h-T36 h) of the same molecule?
The value was 33,962 ± 8,708 ng/mL.

And the “Urolithin A glucuronide in urine” value ([2]; 500 mg dose, Predose)?
The value was 4,114 ± 1,261 ng/mL.

What about the “Urolithin A glucuronide in urine” value ([2]; 500 mg dose, T0-T4 h) of the same molecule?
Its value is 40,167 ± 6,802 ng/mL.

And the “Urolithin A glucuronide in urine” value ([2]; 500 mg dose, T96 spot urine)?
The value was 8,720 ± 3,113 ng/mL.

What about the “Urolithin A glucuronide in urine” value ([2]; 500 mg dose, T4 h-T8 h) of the same molecule?
The value was 86,758 ± 12,051 ng/mL.

What about the “Urolithin A glucuronide in urine” value ([2]; 500 mg dose, T8 h-T12 h) of the same molecule?
Its value is 63,800 ± 9,043 ng/mL.

What about the “Urolithin A glucuronide in urine” value ([2]; 500 mg dose, T12 h-T24 h) of the same molecule?
Its value is 81,125 ± 10,792 ng/mL.

And the “Urolithin A glucuronide in urine” value ([2]; 500 mg dose, T24 h-T36 h)?
Its value is 44,242 ± 4,631 ng/mL.

And the “Urolithin A glucuronide in urine” value ([2]; 500 mg dose, T72 h spot urine)?
Its value is 15,706 ± 3,751 ng/mL.

What about the “Urolithin A glucuronide in urine” value ([2]; 1000 mg dose, Predose) of the same molecule?
The value was 4,114 ± 1,261 ng/mL.

What about the “Urolithin A glucuronide in urine” value ([2]; 1000 mg dose, T0-T4 h) of the same molecule?
Its value is 70,492 ± 12,094 ng/mL.

And the “Urolithin A glucuronide in urine” value ([2]; 1000 mg dose, T96 spot urine)?
Its value is 16,335 ± 3,897 ng/mL.

What about the “Urolithin A glucuronide in urine” value ([2]; 1000 mg dose, T4 h-T8 h) of the same molecule?
The value was 76,417 ± 10,635 ng/mL.

What about the “Urolithin A glucuronide in urine” value ([2]; 1000 mg dose, T8 h-T12 h) of the same molecule?
The value was 64,967 ± 8,075 ng/mL.

And the “Urolithin A glucuronide in urine” value ([2]; 1000 mg dose, T12 h-T24 h)?
The value was 107,983 ± 17,683 ng/mL.

And the “Urolithin A glucuronide in urine” value ([2]; 1000 mg dose, T24 h-T36 h)?
The value was 59,575 ± 9,560 ng/mL.

What about the “Urolithin A glucuronide in urine” value ([2]; 1000 mg dose, T72 h spot urine) of the same molecule?
The value was 29,412 ± 5,717 ng/mL.

What about the “Urolithin A glucuronide in urine” value ([2]; 2000 mg dose, Predose) of the same molecule?
Its value is 4,114 ± 1,261 ng/mL.

And the “Urolithin A glucuronide in urine” value ([2]; 2000 mg dose, T0-T4 h)?
The value was 39,500 ± 6,033 ng/mL.

What about the “Urolithin A glucuronide in urine” value ([2]; 2000 mg dose, T96 spot urine) of the same molecule?
Its value is 38,487 ± 12,858 ng/mL.

What about the “Urolithin A glucuronide in urine” value ([2]; 2000 mg dose, T4 h-T8 h) of the same molecule?
Its value is 65,317 ± 10,853 ng/mL.

And the “Urolithin A glucuronide in urine” value ([2]; 2000 mg dose, T8 h-T12 h)?
The value was 50,450 ± 5,793 ng/mL.

What about the “Urolithin A glucuronide in urine” value ([2]; 2000 mg dose, T12 h-T24 h) of the same molecule?
The value was 114,817 ± 12,123 ng/mL.

What about the “Urolithin A glucuronide in urine” value ([2]; 2000 mg dose, T24 h-T36 h) of the same molecule?
The value was 60,533 ± 12,216 ng/mL.

And the “Urolithin A glucuronide in urine” value ([2]; 2000 mg dose, T72 h spot urine)?
Its value is 70,567 ± 17,054 ng/mL.
